Measurements as given in patent US12501900B2, “Heterocyclyl pyridazine as fungicidal compounds” (Bayer Aktiengesellschaft, priority 2018, dated 2025).

How the values were obtained:
Septoria tritici [1] = test: Septoria tritici in vitro cell test; format: cell-based; conditions: Zymoseptoria tritici, 168 h; 20 ppm of active ingredient; liquid culture, 7 days incubation; read-out: efficacy (inhibition of fungal growth)
Protocol: Example: Septoria tritici In Vitro Cell Test • Solvent: DMSO • Culture medium: 14.6 g anhydrous D-glucose (VWR), 7.1 g Bacteriological Peptone (Oxoid), • 1.4 g granulated Yeast Extract (Merck), QSP 1 liter • Inoculum: spore suspension Fungicides were solubilized in DMSO and the solution used to prepare the required range of concentrations. The final concentration of DMSO used in the assay was ≤1%. A spore suspension of Septoria tritici was prepared and diluted to the desired spore density. Fungicides were evaluated for their ability to inhibit spore germination and mycelium growth in liquid culture assay. The compounds were added in the desired concentration to the culture medium with spores. After 7 days incubation, fungi-toxicity of compounds was determined by spectrometric measurement of mycelium growth. Inhibition of fungal growth was determined by comparing the absorbance values in wells containing the fungicides with the absorbance in control wells without fungicides.

Septoria tritici [2] = test: In vivo preventive test on Septoria tritici (leaf spot on wheat); conditions: Zymoseptoria tritici, in Triticum aestivum; 500 ppm of active ingredient; preventive spray on wheat; evaluated 19 days after inoculation; read-out: efficacy
Protocol: Example: In Vivo Preventive Test on Septoria tritici (Leaf Spot on Wheat)
• Solvent: 5% by volume of Dimethyl sulfoxide • 10% by volume of Acetone • Emulsifier: 1 μl of Tween® 80 per mg of active ingredient
The active ingredients were made soluble and homogenized in a mixture of Dimethyl sulfoxide/Acetone//Tween®80 and then diluted in water to the desired concentration.
The young plants of wheat were treated by spraying the active ingredient prepared as described above. Control plants were treated only with an aqueous solution of Acetone/Dimethyl sulfoxide/Tween®80.
After 24 hours, the plants were contaminated by spraying the leaves with an aqueous suspension of Septoria tritici spores. The contaminated wheat plants were incubated for 72 hours at 17° C. and at 100% relative humidity and then for 15 days at 20° C. and at 90% relative humidity.
The test was evaluated 19 days after the inoculation. 0% means an efficacy which corresponds to that of the control plants while an efficacy of 100% means that no disease was observed.

Sphaerotheca fuliginea = test: In vivo preventive test on Sphaerotheca fuliginea (powdery mildew on cucurbits); conditions: Podosphaera fuliginea, 192 h; 500 ppm of active ingredient; preventive spray on gherkin; evaluated 8 days after inoculation; read-out: efficacy
Botrytis cinerea = test: In vivo preventive test on Botrytis cinerea (grey mould); conditions: 500 ppm of active ingredient, preventive spray on gherkin or cabbage, evaluated 4 to 5 days after inoculation, read-out: efficacy
Pyrenophora teres = test: In vivo preventive test on Pyrenophora teres (net blotch on barley); conditions: 240 h, 500 ppm of active ingredient, preventive spray on barley, evaluated 10 days after inoculation, read-out: efficacy
[3] = Measurement of LogP values by HPLC on reversed phase columns (EEC directive 79/831 Annex V.A8), methods [a], [b], [c]; format: physicochemical; conditions: HPLC on reversed phase column, method [a]; read-out: Log P
Outline: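 Log P determined by reversed-phase HPLC following EEC directive 79/831 Annex V.A8. Multiple values within one method are listed joined by "+". Lambda-max taken from UV spectra over 200–400 nm at chromatographic peak maxima.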

[4] = test system: Colletotrichum lindemuthianum; test: Colletotrichum lindemuthianum in vitro cell test; format: cell-based; conditions: 144 h, 20 ppm of active ingredient, liquid culture, 6 days incubation, read-out: efficacy (inhibition of fungal growth)

| Structure (SMILES) | inhibition at 20 ppm (Septoria tritici [1]) | pest or weed control at 500 ppm (Septoria tritici [2]) | pest or weed control at 500 ppm (Sphaerotheca fuliginea) | pest or weed control at 500 ppm (Botrytis cinerea) | pest or weed control at 500 ppm (Pyrenophora teres) | chromatographic logP [3] | inhibition at 20 ppm [4] |
| --- | --- | --- | --- | --- | --- | --- | --- |
| C=C(OCC)c1cc(C2=NOCC(Cc3ccc(C)cc3C)N2)c(Oc2cccc(C(F)(F)F)c2)nn1 (racemic) [I-009, rac-5-[(2,4-dimethylphenyl)methyl]-3-[6-(1-ethoxyvinyl)-3-[3-(trifluoro-methyl)phenoxy]pyridazin-4-yl]-5,6-dihydro-4H-1,2,4-oxadiazine] | 90 to 100% | 90 to 100% | 90 to 100% | 90 to 100% | 90 to 100% | 4.98 | 90 to 100% |
| COCCOc1c(Cl)nnc(Oc2cccc(C(F)(F)F)c2)c1C1=NOCC(Cc2ccc(C)cc2C)N1 (racemic) [I-072, rac-3-[6-chloro-5-(2-methoxyethoxy)-3-[3-(trifluoro-methyl)phenoxy]pyridazin-4-yl]-5-[(2,4-dimethylphenyl)methyl]-5,6-dihydro-4H-1,2,4-oxadiazine] | 80 to 89% | 90 to 100% | 90 to 100% | 90 to 100% | 80 to 89% | 4.18 | 90 to 100% |
| FC(F)(F)c1cccc(Oc2nnc(Cl)cc2C2=NOCC(Cc3ccc(Br)cc3Cl)N2)c1 (racemic) [I-016, rac-5-[(4-bromo-2-chloro-phenyl)methyl]-3-[6-chloro-3-[3-(trifluoromethyl)phenoxy]pyridazin-4-yl]-5,6-dihydro-4H-1,2,4-oxadiazine] | 90 to 100% | 90 to 100% | 90 to 100% | 90 to 100% | 90 to 100% | 4.61 | 90 to 100% |
| COc1cccc(Oc2nnc(Cl)cc2C2=NOCC(Cc3ccc(C)cc3C)N2)c1F (racemic) [I-005, rac-3-[6-chloro-3-(2-fluoro-3-methoxy-phenoxy)pyridazin-4-yl]-5-[(2,4-dimethylphenyl)methyl]-5,6-dihydro-4H-1,2,4-oxadiazine] | 70 to 79% | 90 to 100% | 90 to 100% | 90 to 100% | 90 to 100% | 3.91 | 90 to 100% |
